Results on ten compounds are retold here after paper PMC5187537, “Antioxidant Activity of Oat Proteins Derived Peptides in Stressed Hepatic HepG2 Cells” (Antioxidants, 2016).

“And” between values parts separate entries of the source, which are not always exact repeats. Equal values may be shown once. Read-outs that look alike come from different tables or passages of the source.

The test system of test [1] is HepG2 cells. It is filed as cell-based, Human. As to conditions: then 20 mM AAPH 24 h, MTT; for Cytoprotective effect against AAPH-induced damage: 50 or 100 µM peptide 24 h; for Increase of viability of cells compared to PC: 100 µM peptide 24 h, p < 0.05. On the procedure: Human hepatocellular carcinoma (HepG2) cells were purchased from the American Type Culture Collection (ATCC; Manassas, VA, USA). They were cultured at 37 °C in a humidified incubator with 5% CO2 and 95% air. Dulbecco’s Minimal Essential Media (DMEM) supplemented with 10% (v/v) Fetal Bovine Serum was used for the maintenance of cells. […] The MTT (3-(4,5-dimethylthiazol-2-yl)-2,5-diphenyltetrazolium bromide) assay, as described in an earlier research, was used for cytotoxicity and cytoprotective tests. […] Following another 24 h incubation, cells were washed twice with 200 µL of PBS. Ten µL of MTT solution (5 mg/mL in PBS) and 100 µL of media were added to each well. After 1 h, MTT solution was removed, and 50 µL DMSO were added. Absorbances were recorded at 570 nm with 630 nm background subtraction using a BioTek Epoch™ microplate reader (Fisher Scientific, Nepean, ON, Canada). Untreated cells were used as negative control (NC) and cells treated with only AAPH were used as positive control (PC).

The subject of test [2] is glutathione peroxidase (GPx). The experiment in a line: Glutathione peroxidase activity of lysates of AAPH-stressed cells. Format: cell-based, Human. The conditions noted are these: for Effect on GPx activity of AAPH-stressed cells: then AAPH 24 h. The protocol: (§1) Cells were seeded at 1 × 10^6 cells/plate in 60 mm tissue culture plates and allowed to grow for 24 h. In each plate, cells were washed twice with 4 mL of PBS (pH 7.2), and treated with 4 mL peptide samples (P1, P2, P6, P7) dissolved in culture media at 50 or 100 µM for 24 h. After removal of peptide solutions, cells were washed twice with 4 mL of PBS/plate and treated with 4 mL of […] dissolved in culture media and allowed to incubate for 24 h. Cells in each culture plate were harvested by incubation (5 min) with 0.5 mL of 0.25% trypsin, addition of 1 mL of culture media and centrifugation at 1000× g for 5 min. Cell pellets were washed with ice cold PBS (500 µL each) until no pink color was observed, re-suspended in ice cold PBS (300 µL) for the superoxide dismutase (SOD) assay, 500 µL for glutathione peroxidase (GPx) and catalase (CAT) assays. For total glutathione assay, 300 µL of 5% ice cold sulfosalicylic acid bubbled with 100% nitrogen was used for cell lysis. Cells were lysed by sonication on ice for 1 min using a probe-type sonicator (Vibra-Cell, Sonics and Materials Inc., Newtown, CT, USA) pulsing at 15 s on and 10 s off cycles. Following centrifugation of cell lysate at 13,000× g (4 °C), pellets containing cell debris were discarded, while supernatants were used for determination of glutathione content. Protein contents were determined using a modified Lowry assay.
The activity of GPx was determined as previously described in a 96-well plate. Briefly, in each well, 187.5 µL of potassium phosphate buffer was mixed with 12.5 µL NADPH (4 mM) solution and 25 µL of cell lysates or buffer (blank), and incubated at 30 °C for 5 min. Then, 100 µL of 0.15% cumene hydroperoxide was added in each well to begin the reaction. The rate of disappearance of NADPH was followed at 340 nm for 5 min. The activity was expressed as Units of GPx activity/mg protein.

For test [3], the system named is catalase (CAT). The experiment in a line: Catalase activity of lysates of AAPH-stressed cells. It is filed as cell-based, Human. The protocol: as §1, with “assay. To measure the catalase activity, 1790 µL potassium phosphate buffer (50 mM, pH 7.0) was mixed with 200 µL cell lysate in a UV cuvette. Ten µL of H2O2 (30%) was added, and removal of H2O2 by catalase was followed at 240 nm using a Cary 50 Bio UV-Vis spectrophotometer with 18-cell changer (Varian Inc., Mississauga, ON, Canada). The activity was expressed as a percentage of control.” for “assay.”

Test [4] deals with superoxide dismutase (SOD). Description: Superoxide dismutase activity of lysates of AAPH-stressed cells. It is filed as cell-based, Human. As to conditions: 50 µM peptide 24 h, then AAPH 24 h. On the procedure:
as §1
The SOD activity was measured based on the rate of reduction of nitroblue tetrazolium (2.24 mM) to formazan by xanthine oxidase (13.2 U/mL) at 560 nm. Eight concentrations of each cell extract ([…] protein/mL) or SOD standard (2–500 ng/mL) were used to obtain inhibition curves. Specifically, 20 µL of cell sample, or buffer (blank) was mixed with 160 µL of assay solution, and 20 µL of xanthine oxidase was added to initiate the reaction. The reduction of nitroblue tetrazolium to blue formazan by O2^−• generated in situ was followed at 560 nm. SOD activities were calculated and expressed as units per milligram of protein.

Test [5] in a line: Oxygen radical absorbance capacity (ORAC) assay. As to conditions: fluorescein 0.08 µM, AAPH 150 mM, 37 °C, 50 min, potassium phosphate buffer pH 7.4 75 mM, peptides 100 and 200 µM; triplicate, mean ± STDEV. On the procedure:
The ORAC assay was performed as previously described. The decay of fluorescein (0.08 µM) by AAPH (150 mM) at 37 °C was recorded at 1 min intervals over 50 min using a BioTek™ FL × 800™ fluorescent microplate reader (Fisher Scientific, Nepean, ON, Canada) with fluorescence filters (excitation 485/20 nm, emission 528/20 nm). Potassium phosphate buffer (pH 7.4, 75 mM) was used to dissolve peptides (100 and 200 µM) and Trolox standards (6.25–100 µM). Data analysis was done with Gen5^TM software (Fisher Scientific, Nepean, ON, Canada), and ORAC values were expressed as µM Trolox Equivalent (TE)/µM peptide using the standard curve.

The conditions of test [6]: cited from earlier work. The protocol:
Recent studies have, however, shown that, in addition to fibers and polyphenols, hydrolyzed proteins and peptides also contribute to the health promoting effect of cereals. […] Protein hydrolysates from oats, wheat, and rice have all shown antioxidant activities against common reactive oxygen species (ROS) in various systems. The peroxyl radical scavenging activity of oat proteins in the ... || Peroxyl radical (ROO^•) scavenging activities of P1–P7 were evaluated using the ORAC assay. […] ROO^• scavenging activities can be affected by sequences, molecular weights and the presence of amino acids that can form stable radical intermediates after donation of electrons or protons. The highest activities of P2 and P5 can be explained ...

Test [7] deals with glutathione (GSH) of HepG2 cells. The experiment in a line: Cellular glutathione, enzymatic recycling method. As to conditions: treatment with AAPH alone, 24 h. It is filed as cell-based, Human. On the procedure:
as §1
The assay was based on the enzymatic recycling method adjusted for 96-well plates. All solutions were prepared in sodium phosphate buffer (125 mM, pH 7.5) that contained 6.3 mM EDTA (ethylenediaminetetraacetic acid). In summary, 60 µL of 0.35 mM NADPH and 10 µL of 6 mM DTNB were added to wells, this was followed by the addition of 20 µL cell lysate or glutathione (GSH) standard. To initiate the reaction, 10 µL of glutathione reductase (5 IU/mL) was added and the rate of reaction between GSH from cell lysate and DTNB was measured at 412 nm. Total glutathione of cell lysates was calculated based on a standard curve of glutathione.

Test [8] deals with RAW 264.7 cells. The conditions noted are these: peptides from fish; cited from earlier work. The text has this: The physiological role of GSH has long been of interest, particularly its antioxidant function due to the unique redox chemistry of its cysteinyl thiol residue. The oxidation of sulfhydryl groups on amino acids by ROS can lead to the formation of protein disulfide bonds, which can be reduced by GSH into individual sulfhydryl groups. GSH is also a substrate used by GPx in the reduction of peroxides and its concentration often reflects oxidative status of cells.

The mark [9] stands for this setting: 50 µM peptide 24 h, then AAPH 24 h.
[10] abbreviates: peptide from beta-lactoglobulin.

As to “GQTV [P3, oat protein derived peptide GQTV, synthesized by GenScript]”, the “Cytoprotective effect against AAPH-induced damage” value (“Cytoprotective effect” below) in test [1] was “no effect on oxidative damages”.
Turning to “DVNNNANQLEPR [P7, oat protein derived peptide …, synthesized by GenScript]”, the “Effect on GPx activity of AAPH-stressed cells” value (“Effect on GPx activity” below) in test [2] (50 µM peptide 24 h) is given as “had no effect”. Also, the “Effect on GPx activity” value in test [2] (100 µM peptide 24 h) is “only suppressed the damage caused by AAPH”. Besides, the “Further increase of CAT activity compared to PC cells” value in test [3] (setting [9]) turned out to be 90%. In addition, the “Effect on SOD activity compared to AAPH treated cells only (PC)” value in test [4] is listed as “did not affect the activity”. In addition, the “ORAC value (peroxyl radical scavenging activity)” value (“ORAC value” below) in test [5] was 0.14–0.61 µM TE/µM and 0.14 ± 0.04 µM TE/µM. Moreover, in test [1], the “Increase of viability of cells compared to PC” value came out at 8.3% and the “Cytoprotective effect” value is listed as “cytoprotective”.
For “MHIRL [literature peptide from beta-lactoglobulin]”, in test [6] (setting [10]), the ORAC activity is 0.306 µM TE/µM.
For `CC(C)(N=NC(C)(C)C(=N)N)C(=N)N.Cl.Cl` [AAPH, 2,2′-azobis(2-methylpropionamidine) dihydrochloride, reference compound], the “Decrease of GSH” value in test [7] turned out to be 58.1%. Further, the “Decrease of GPx activity relative to NC” value in test [2] (HepG2 cells incubated with AAPH alone, 24 h) came to 18.2%. The “Increase of CAT activity” value in test [3] (treatment with AAPH alone, 24 h) is reported as roughly 2 fold.
Take VCSV [literature peptide from fish]: in test [8], the “Increase of ROS due to AAPH” value is “attenuated”.
“YAEERYPIL [literature peptide from egg white]”: the ORAC activity in test [6] (peptide from egg white) was 3.5 µM TE/µM.
CAAP [literature peptide from fish]: the “Increase of ROS due to AAPH” value in test [8] was “attenuated”.
With “WYSLAMAASDI [literature peptide from beta-lactoglobulin]”, the ORAC activity in test [6] (setting [10]) was 2.6 µM/µM.
For “GQTVFNDRLRQGQLL [P4, oat protein derived peptide …, synthesized by GenScript]”, the “ORAC value” value in test [5] was 0.14–0.61 µM TE/µM. Further, in test [1], the “Cytoprotective effect” value was “no effect on oxidative damages”.
Regarding “FNDRLRQGQLL [P1, oat protein derived peptide …, synthesized by GenScript]”, the “Effect on GPx activity” value in test [2] (50 µM peptide 24 h) is recorded as “completely restored the activity”. The “Effect on CAT activity compared to PC cells” value in test [3] (setting [9]) is listed as “no change was observed”. Moreover, the “Effect on CAT activity” value in test [3] (100 µM peptide 24 h, then AAPH 24 h) is given as “not affected by the peptide concentration”. For the same compound, the “Effect on SOD activity compared to AAPH treated cells only (PC)” value in test [4] is given as “did not affect the activity”. For the same compound, the “ORAC value” value in test [5] was 0.14–0.61 µM TE/µM. For the same compound, in test [1], the “Increase of viability of cells compared to PC” value came out at 15.5% and the “Cytoprotective effect” value is recorded as “cytoprotective”.
